Data from PubChem BioAssay AID330 (DTP/NCI, 2004).
Values joined by “and” are separate entries in the source; they are usually repeats but may differ in a detail not shown here. Identical values can stand only once. Toxic doses and inconclusive results are not listed. Rule for the calls: active = survival T/C of 150% or more; inactive = T/C below 125% in these data.

Test system: P388 leukemia ip, CD2F1 mice, survival T/C
Assay: NCI In Vivo Anticancer Drug Screen. Data for tumor model P388 Leukemia (intraperitoneal) in CD2F1 (CDF1) mice
Settings: endpoint: median survival time, higher = longer survival
Method in brief: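 Mice carrying the transplanted tumor received test compound or vehicle. Survival was recorded in each group, and the value is the treated-group measurement divided by that of the vehicle-treated control group.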

[1] = dose: 100.0 mg/kg/injection, schedule: Q01DX009 (ip), vehicle: saline
[2] = dose: 200.0 mg/kg/injection, schedule: Q01DX009 (ip), vehicle: saline
[3] = dose: 50.0 mg/kg/injection, schedule: Q01DX009 (ip), vehicle: Klucel (hydroxypropylcellulose) (HPC)
[4] = dose: 100.0 mg/kg/injection, schedule: Q01DX009 (ip), vehicle: Klucel (hydroxypropylcellulose) (HPC)
[5] = dose: 50.0 mg/kg/injection, schedule: Q01DX005 (ip), vehicle: Klucel (hydroxypropylcellulose) (HPC)
[6] = dose: 60.0 mg/kg/injection, schedule: Q01DX005 (ip), vehicle: saline with Tween-80
[7] = dose: 120.0 mg/kg/injection, schedule: Q01DX005 (ip), vehicle: saline with Tween-80
[8] = dose: 240.0 mg/kg/injection, schedule: Q01DX005 (ip), vehicle: saline with Tween-80
[9] = dose: 50.0 mg/kg/injection, schedule: Q01DX009 (ip), vehicle: saline with Tween-80
[10] = dose: 100.0 mg/kg/injection, schedule: Q01DX009 (ip), vehicle: saline with Tween-80
[11] = dose: 200.0 mg/kg/injection, schedule: Q01DX009 (ip), vehicle: saline with Tween-80
[12] = dose: 12.5 mg/kg/injection, schedule: Q01DX009 (ip), vehicle: Klucel (hydroxypropylcellulose) (HPC)
[13] = dose: 25.0 mg/kg/injection, schedule: Q01DX009 (ip), vehicle: Klucel (hydroxypropylcellulose) (HPC)
[14] = dose: 25.0 mg/kg/injection, schedule: Q01DX009 (ip), vehicle: saline with Tween-80

Measured: T/C

O=C(Nc1cccc2ccccc12)OC1CC2CCC1C2Cl (configuration not stated)
inactive: dose: 25.0 mg/kg/injection, schedule: Q01DX009 (ip), vehicle: other 93 % of control | dose: 50.0 mg/kg/injection, schedule: Q01DX009 (ip), vehicle: other 87 % of control | dose: 100.0 mg/kg/injection, schedule: Q01DX009 (ip), vehicle: other 87 % of control | dose: 200.0 mg/kg/injection, schedule: Q01DX009 (ip), vehicle: other 88 % of control | dose: 400.0 mg/kg/injection, schedule: Q01DX009 (ip), vehicle: other 91 % of control

Cc1ccc(N)c(O)c1
inactive: [1] 102 % of control and 105 % of control | [2] 100 % of control and 103 % of control | dose: 400.0 mg/kg/injection, schedule: Q01DX009 (ip), vehicle: saline 101 % of control and 113 % of control | dose: 600.0 mg/kg/injection, schedule: Q01DX009 (ip), vehicle: saline 115 % of control

CCN(CCC#N)C(=O)c1cccc([N+](=O)[O-])c1
inactive: dose: 60.0 mg/kg/injection, schedule: Q01DX005 (ip), vehicle: Klucel (hydroxypropylcellulose) (HPC) 102 % of control | dose: 120.0 mg/kg/injection, schedule: Q01DX005 (ip), vehicle: Klucel (hydroxypropylcellulose) (HPC) 94 % of control

C#CCSc1nc2ccccc2s1
inactive: [3] 98 % of control | [4] 109 % of control

CCOC(=O)c1cc2cc3c4c(c2oc1=O)CCCN4CCC3
inactive: dose: 12.5 mg/kg/injection, schedule: Q01DX005 (ip), vehicle: Klucel (hydroxypropylcellulose) (HPC) 106 % of control | dose: 25.0 mg/kg/injection, schedule: Q01DX005 (ip), vehicle: Klucel (hydroxypropylcellulose) (HPC) 110 % of control | [5] 107 % of control and 111 % of control

COC(=O)c1cc(-c2ccc(OC)cc2)c2c(=O)n(-c3ccccc3)[nH]c2n1
inactive: [6] 101 % of control | [7] 99 % of control | [8] 94 % of control

CN1CCCN(C)C1c1cc([N+](=O)[O-])ccc1O
inactive: dose: 6.25 mg/kg/injection, schedule: Q01DX009 (ip), vehicle: saline sonified 100 % of control | dose: 12.5 mg/kg/injection, schedule: Q01DX009 (ip), vehicle: saline sonified 100 % of control | dose: 25.0 mg/kg/injection, schedule: Q01DX009 (ip), vehicle: saline sonified 100 % of control

COC(=O)CCC(C)C1CCC2C3=CC(=O)C4CC(OC(C)=O)CCC4(C)C3CC(OC(C)=O)C21C (configuration not stated)
inactive: [9] 109 % of control | [10] 94 % of control | [11] 87 % of control

N#CC1CCCC(Cc2ccccc2)(c2ccccc2)C1=O (configuration not stated)
inactive: dose: 100.0 mg/kg/injection, schedule: Q01DX001 (ip), vehicle: Klucel (hydroxypropylcellulose) (HPC) 101 % of control | dose: 200.0 mg/kg/injection, schedule: Q01DX001 (ip), vehicle: Klucel (hydroxypropylcellulose) (HPC) 102 % of control | dose: 400.0 mg/kg/injection, schedule: Q01DX001 (ip), vehicle: Klucel (hydroxypropylcellulose) (HPC) 100 % of control

O=C(NO)c1coc2ccccc2c1=O
inactive: [6] 101 % of control | [7] 103 % of control

CC1CN(/N=C/c2ccc([N+](=O)[O-])o2)C(=O)O1 (configuration not stated)
inactive: dose: 6.25 mg/kg/injection, schedule: Q01DX009 (ip), vehicle: Klucel (hydroxypropylcellulose) (HPC) 108 % of control | [12] 106 % of control | [13] 103 % of control | [3] 103 % of control

CCCCCCCCCCCCCCCCCc1cccc(OC)c1
inactive: dose: 7.5 mg/kg/injection, schedule: Q01DX009 (ip), vehicle: saline with Tween-80 95 % of control | dose: 15.0 mg/kg/injection, schedule: Q01DX009 (ip), vehicle: saline with Tween-80 97 % of control | dose: 30.0 mg/kg/injection, schedule: Q01DX009 (ip), vehicle: saline with Tween-80 110 % of control

C[n+]1ccccc1-c1nc(-c2cccc[n+]2C)nc(-c2cccc[n+]2C)n1
inactive: [12] 96 % of control | [13] 88 % of control

NC(=S)c1cccc(/C=N/Nc2ccccn2)c1
inactive: dose: 100.0 mg/kg/injection, schedule: Q01DX001 (ip), vehicle: saline 96 % of control | dose: 200.0 mg/kg/injection, schedule: Q01DX001 (ip), vehicle: saline 94 % of control | dose: 400.0 mg/kg/injection, schedule: Q01DX001 (ip), vehicle: saline 96 % of control

COCC/C=C/CCl
inactive: dose: 100.0 mg/kg/injection, schedule: Q04DX003 (ip), vehicle: saline with Tween-80 100 % of control | dose: 200.0 mg/kg/injection, schedule: Q04DX003 (ip), vehicle: saline with Tween-80 100 % of control | dose: 400.0 mg/kg/injection, schedule: Q04DX003 (ip), vehicle: saline with Tween-80 95 % of control

O=C(N/N=C/c1cc(Cl)cc(Cl)c1O)c1ccccc1
inactive: dose: 100.0 mg/kg/injection, schedule: Q01DX001 (ip), vehicle: saline with Tween-80 96 % of control | dose: 200.0 mg/kg/injection, schedule: Q01DX001 (ip), vehicle: saline with Tween-80 98 % of control | dose: 400.0 mg/kg/injection, schedule: Q01DX001 (ip), vehicle: saline with Tween-80 103 % of control

Cc1ccc2c(ccc(/C=C/c3ccc(O)c4ncccc34)[n+]2C)c1
inactive: dose: 12.5 mg/kg/injection, schedule: Q01DX009 (ip), vehicle: saline with Tween-80 116 % of control | [14] 105 % of control

Cc1cnc2ccc(O)cc2c1CO
inactive: dose: 100.0 mg/kg/injection, schedule: Q04DX002 (ip), vehicle: saline with Tween-80 92 % of control | dose: 200.0 mg/kg/injection, schedule: Q04DX002 (ip), vehicle: saline with Tween-80 94 % of control | dose: 400.0 mg/kg/injection, schedule: Q04DX002 (ip), vehicle: saline with Tween-80 93 % of control

NNC(=O)CC(N)=O
inactive: dose: 12.5 mg/kg/injection, schedule: Q04DX003 (ip), vehicle: saline 95 % of control | dose: 25.0 mg/kg/injection, schedule: Q04DX003 (ip), vehicle: saline 95 % of control | dose: 50.0 mg/kg/injection, schedule: Q04DX003 (ip), vehicle: saline 96 % of control | dose: 200.0 mg/kg/injection, schedule: Q04DX003 (ip), vehicle: saline 104 % of control | dose: 400.0 mg/kg/injection, schedule: Q04DX003 (ip), vehicle: saline 100 % of control

COC(=O)c1cc(-c2ccccc2Cl)n2c(N)nnc2n1
inactive: [6] 118 % of control | [7] 105 % of control | [8] 101 % of control

S=C1SCN(Cc2ccccc2)CN1Cc1ccccc1
inactive: [9] 100 % of control | [10] 93 % of control | [11] 89 % of control

NC(N)=NS(=O)(=O)c1ccc(N=Cc2c3ccccc3nc3cc(Cl)ccc23)cc1
inactive: [6] 91 % of control | [7] 91 % of control | [8] 91 % of control

COc1ccc2[nH]c3cc4c(=O)c5cc(OC)ccc5[nH]c4cc3c(=O)c2c1
inactive: [3] 96 % of control | [4] 100 % of control | dose: 200.0 mg/kg/injection, schedule: Q01DX009 (ip), vehicle: Klucel (hydroxypropylcellulose) (HPC) 100 % of control

C1=CC2CC1CC2[P+](c1ccccc1)(c1ccccc1)c1ccccc1 (configuration not stated)
inactive: dose: 12.5 mg/kg/injection, schedule: Q01DX001 (ip), vehicle: saline 102 % of control | dose: 25.0 mg/kg/injection, schedule: Q01DX001 (ip), vehicle: saline 115 % of control | dose: 50.0 mg/kg/injection, schedule: Q01DX001 (ip), vehicle: saline 97 % of control

NCCCCC(NC(=O)OCC1c2ccccc2-c2ccccc21)C(=O)O (configuration not stated)
inactive: [5] 99 % of control | dose: 100.0 mg/kg/injection, schedule: Q01DX005 (ip), vehicle: Klucel (hydroxypropylcellulose) (HPC) 99 % of control | dose: 200.0 mg/kg/injection, schedule: Q01DX005 (ip), vehicle: Klucel (hydroxypropylcellulose) (HPC) 109 % of control

O=c1cc[nH]cc1[N+](=O)[O-]
inactive: dose: 12.5 mg/kg/injection, schedule: Q01DX009 (ip), vehicle: distilled water + Tween-80 93 % of control | dose: 25.0 mg/kg/injection, schedule: Q01DX009 (ip), vehicle: distilled water + Tween-80 98 % of control | [14] 99 % of control | dose: 50.0 mg/kg/injection, schedule: Q01DX009 (ip), vehicle: distilled water + Tween-80 108 % of control | [9] 98 % of control | dose: 100.0 mg/kg/injection, schedule: Q01DX009 (ip), vehicle: distilled water + Tween-80 101 % of control | [10] 105 % of control | [1] 104 % of control and 108 % of control | dose: 200.0 mg/kg/injection, schedule: Q01DX009 (ip), vehicle: distilled water + Tween-80 107 % of control | [11] 104 % of control | [2] 100 % of control and 92 % of control
